Measurements: patent publication US9840510B1, “Pyrazolo[1,5-a]pyrimidinyl carboxamide compounds and their use in the treatment of medical disorders” (Lysosomal Therapeutics Inc., priority 2016, dated 2017)
≈ marks a conversion by molar mass, not a printed value.

Experiment: Compound solubility in water
Format: physicochemical

SMILES	solubility [µg/mL]
Cc1cc(-c2ccc(F)cc2C#N)nc2c(C(=O)NC(C)C(F)(F)F)cnn12 (stereo not shown) [III-154]	0.7 (≈ 1.79 µM)
Cc1cc(-c2cncc(Cl)c2)nc2c(C(=O)N[C@H](C3CC3)C(F)(F)F)cnn12 [III-120]	0.7 (≈ 1.71 µM)
Cc1cc(-c2ccc3ocnc3c2)nc2c(C(=O)NC(C3CC3)C(F)(F)F)cnn12 (stereo not shown) [III-83]	0.3 (≈ 0.722 µM)
Cc1cc(-c2cccc(F)c2)nc2c(C(=O)N[C@H](C)C(F)(F)F)cnn12 [III-361]	0.7 (≈ 1.91 µM)
Cc1cc(-c2ccc(F)o2)nc2c(C(=O)N[C@H](C)C(F)(F)F)cnn12 [III-334]	2 (≈ 5.61 µM)
Cc1cc(-c2cccc3c2OCO3)nc2c(C(=O)NC(C3CC3)C(F)(F)F)cnn12 (stereo not shown) [III-183]	0.5 (≈ 1.2 µM)
COc1c(F)cccc1-c1cc(C)n2ncc(C(=O)N[C@@H](C)C3CC3)c2n1 [III-138]	2.5 (≈ 6.79 µM)
Cc1cc(-c2cccc(F)n2)nc2c(C(=O)N[C@H](C)C3CC3)cnn12 [III-135]	1.5 (≈ 4.42 µM)
Cc1cc(-c2cccc(Cl)c2)nc2c(C(=O)N[C@@H](C)C3CC3)cnn12 [III-65]	0.9 (≈ 2.54 µM)
Cc1cc(-c2ccccc2C#N)nc2c(C(=O)NC(C3CC3)C(F)(F)F)cnn12 (stereo not shown) [III-211]	0.2 (≈ 0.501 µM)
Cc1cc(N2CCN(C(C)C)C2=O)nc2c(C(=O)N[C@@H](C3CC3)C(F)(F)F)cnn12 [III-326]	21 (≈ 49.5 µM)
Cc1cc(-c2cccc(F)c2)nc2c(C(=O)NC(C3CC3)C(F)(F)F)cnn12 (stereo not shown) [III-111]	0.07 (≈ 0.178 µM)
Cc1coc(-c2cc(C)n3ncc(C(=O)N[C@@H](C4CC4)C(F)(F)F)c3n2)n1 [III-256]	0.5 (≈ 1.32 µM)
Cc1cc(Cl)n2ncc(C(=O)NC(C)(C)C3CC3)c2n1 [III-14]	10.7 (≈ 36.5 µM)
COc1c(C#N)cccc1-c1cc(C)n2ncc(C(=O)NC(C)C(F)(F)F)c2n1 (stereo not shown) [III-142]	2.2 (≈ 5.45 µM)
C#CC(C)(C)NC(=O)c1cnn2c(C)cc(-c3cccc(OC)c3)nc12 [III-69]	0.5 (≈ 1.44 µM)
C#Cc1cncc(-c2cc(C)n3ncc(C(=O)N[C@@H](C4CC4)C(F)(F)F)c3n2)c1 [III-383]	0.2 (≈ 0.501 µM)
Cc1cc(-c2cccc3ocnc23)nc2c(C(=O)NC(C3CC3)C(F)(F)F)cnn12 (stereo not shown) [III-106]	0.1 (≈ 0.241 µM)
Cc1cc(-c2ccccn2)nc2c(C(=O)NC(C)(C)C(F)(F)F)cnn12 [III-408]	0.4 (≈ 1.1 µM)
Cc1cc(N2CCN(C(C)C)C2=O)nc2c(C(=O)NC(C)(C)C)cnn12 [III-232]	23.7 (≈ 66.1 µM)
Cc1cc(-c2ccns2)nc2c(C(=O)N[C@@H](C)C3CC3)cnn12 [III-197]	6.5 (≈ 19.9 µM)
Cc1cc(-c2cccnc2F)nc2c(C(=O)N[C@@H](C3CC3)C(F)(F)F)cnn12 [III-115]	1.9 (≈ 4.83 µM)

SMILES	solubility [µg/mL]
Cc1ccncc1-c1cc(C)n2ncc(C(=O)NC(C)C(F)(F)F)c2n1 (stereo not shown) [III-281]	12.5 (≈ 34.4 µM)
Cc1cc(-c2cccc3ncoc23)nc2c(C(=O)NC(C3CC3)C(F)(F)F)cnn12 (stereo not shown) [III-104]	0.02 (≈ 0.0481 µM)
Cc1cc(-c2ccon2)nc2c(C(=O)NC(C3CC3)C(F)(F)F)cnn12 (stereo not shown) [III-239]	0.8 (≈ 2.19 µM)
Cc1cc(N2CCCCC2)n2ncc(C(=O)N[C@@H](C)C3CC3)c2n1 [III-30]	4.7 (≈ 14.4 µM)
Cc1cc(-c2cccc(-c3ncco3)c2)nc2c(C(=O)NC(C3CC3)C(F)(F)F)cnn12 (stereo not shown) [III-416]	0.3 (≈ 0.68 µM)
COc1cc(-c2cc(C)n3ncc(C(=O)NC(C4CC4)C(F)(F)F)c3n2)ccc1F (stereo not shown) [III-147]	0.4 (≈ 0.947 µM)
Cc1cc(N2CCN(C(C)C)C2=O)nc2c(C(=O)N[C@H](C3CC3)C(F)(F)F)cnn12 [III-327]	32.8 (≈ 77.3 µM)
Cc1cc(-c2occc2C#N)nc2c(C(=O)NC(C3CC3)C(F)(F)F)cnn12 (stereo not shown) [III-250]	0.4 (≈ 1.03 µM)
CCCO[C@H]1CC[C@H](NC(=O)c2cnn3c(C)cc(-c4cccnc4)nc23)CC1 [III-40]	20 (≈ 50.8 µM)
Cc1cc(-c2ccc(F)cc2)nc2c(C(=O)N[C@@H](C)C3CC3)c(Cl)nn12 [III-32]	0.1 (≈ 0.268 µM)
Cc1cc(N2CCN(C(C)C)C2=O)nc2c(C(=O)NC(C)C(F)(F)F)cnn12 (stereo not shown) [III-227]	9.4 (≈ 23.6 µM)
Cc1nc(-c2cc(C)n3ncc(C(=O)N[C@H](C)C(F)(F)F)c3n2)oc1C [III-345]	1 (≈ 2.72 µM)
Cc1cc(-c2cncc(Cl)c2)nc2c(C(=O)NC(C3CC3)C(F)(F)F)cnn12 (stereo not shown) [III-119]	0.08 (≈ 0.195 µM)
Cc1cc(-c2cc(F)c3ocnc3c2)nc2c(C(=O)NC(C)C(F)(F)F)cnn12 (stereo not shown) [III-295]	3.4 (≈ 8.35 µM)
CCc1cc(-c2ccccn2)n2ncc(C(=O)NC(C)C3CC3)c2n1 (stereo not shown) [III-48]	19.8 (≈ 59 µM)
Cc1cc(-c2ccc(F)cc2)n2ncc(C(=O)N[C@@H](C)C3CC3)c2n1 [III-8]	0.5 (≈ 1.48 µM)
Cc1cc(-c2ccc(F)nc2)nc2c(C(=O)NC(C3CC3)C(F)(F)F)cnn12 (stereo not shown) [III-84]	0.8 (≈ 2.03 µM)
Cc1cc(-c2ccc3nc[nH]c3c2)nc2c(C(=O)NC(C3CC3)C(F)(F)F)cnn12 (stereo not shown) [III-307]	0.3 (≈ 0.724 µM)
Cc1cc(-c2cccnc2)nc2c(C(=O)N[C@H]3CC[C@H](OC(C)(C)C)CC3)cnn12 [III-38]	18.2 (≈ 44.7 µM)
C#CC(C)(C)NC(=O)c1cnn2c(C)cc(-c3ccns3)nc12 [III-412]	3.7 (≈ 11.4 µM)
Cc1cc(-n2ccc(F)n2)nc2c(C(=O)N[C@H](C3CC3)C(F)(F)F)cnn12 [III-173]	1.4 (≈ 3.66 µM)
